Data: ChEMBL document CHEMBL5537181 (J Med Chem, 2024)
Calls of active or inactive are those of the source. The calls are words filed in the database; no cut-off is given here.

Experiments:
[1] = target: Neuronal acetylcholine receptor; alpha9/alpha10 (Homo sapiens, UniProt Q9GZZ6+Q9UGM1); test: Antagonist activity at human alpha9alpha10 nAChR expressed in acetylcholine-induced Xenopus laevis oocytes assessed as inhibition of acetylcholine-induced current by two electrode voltage-clamp assay; format: cell-based, Oocyte
[2] = target: Voltage-dependent N-type calcium channel subunit alpha-1B (Homo sapiens, UniProt Q00975); test: Inhibition of human Cav2.2 channel transfected in HEK293T cells co-expressed with human GABAB receptor assessed as inhibition of Cav2.2-mediated Ba2+ current measured for 3 to 5 days by whole-cell patch clamp assay; format: cell-based
Rattus norvegicus = test: Analgesic activity in Chronic constriction injury rat model assessed as decrease in hyperalgesia at 300 microg/kg,IM administrated every 2 hrs and measured after 24 hrs; format: functional, organism-based; conditions: dose 300.0 µg/kg

Neuronal acetylcholine receptor; alpha9/alpha10, sequence (Q9UGM1 whole entry): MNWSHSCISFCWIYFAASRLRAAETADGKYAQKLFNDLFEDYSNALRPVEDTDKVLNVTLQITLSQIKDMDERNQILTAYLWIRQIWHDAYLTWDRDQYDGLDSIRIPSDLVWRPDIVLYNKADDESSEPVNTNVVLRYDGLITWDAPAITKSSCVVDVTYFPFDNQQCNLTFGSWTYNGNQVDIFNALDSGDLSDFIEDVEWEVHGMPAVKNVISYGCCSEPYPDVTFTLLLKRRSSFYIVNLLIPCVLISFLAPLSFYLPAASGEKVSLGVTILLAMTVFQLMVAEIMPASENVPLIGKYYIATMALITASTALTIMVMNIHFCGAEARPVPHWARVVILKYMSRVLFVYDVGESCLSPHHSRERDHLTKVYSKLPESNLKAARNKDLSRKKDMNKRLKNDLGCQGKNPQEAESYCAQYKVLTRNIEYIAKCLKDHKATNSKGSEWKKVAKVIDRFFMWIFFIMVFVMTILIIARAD
Neuronal acetylcholine receptor; alpha9/alpha10, sequence (Q9GZZ6 whole entry): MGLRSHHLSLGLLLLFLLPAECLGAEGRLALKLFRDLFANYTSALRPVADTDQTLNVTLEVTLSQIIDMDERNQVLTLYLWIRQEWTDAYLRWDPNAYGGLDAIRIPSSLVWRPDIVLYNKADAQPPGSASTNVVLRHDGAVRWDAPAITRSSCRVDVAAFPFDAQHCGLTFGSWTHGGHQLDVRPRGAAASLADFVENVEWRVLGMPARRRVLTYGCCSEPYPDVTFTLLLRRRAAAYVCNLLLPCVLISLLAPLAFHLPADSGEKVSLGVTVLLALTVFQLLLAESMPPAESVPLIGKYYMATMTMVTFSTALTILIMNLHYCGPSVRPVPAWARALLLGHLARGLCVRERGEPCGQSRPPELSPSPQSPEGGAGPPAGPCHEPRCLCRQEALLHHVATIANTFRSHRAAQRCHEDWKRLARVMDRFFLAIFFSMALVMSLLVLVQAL
Voltage-dependent N-type calcium channel subunit alpha-1B, sequence (Q00975 whole entry): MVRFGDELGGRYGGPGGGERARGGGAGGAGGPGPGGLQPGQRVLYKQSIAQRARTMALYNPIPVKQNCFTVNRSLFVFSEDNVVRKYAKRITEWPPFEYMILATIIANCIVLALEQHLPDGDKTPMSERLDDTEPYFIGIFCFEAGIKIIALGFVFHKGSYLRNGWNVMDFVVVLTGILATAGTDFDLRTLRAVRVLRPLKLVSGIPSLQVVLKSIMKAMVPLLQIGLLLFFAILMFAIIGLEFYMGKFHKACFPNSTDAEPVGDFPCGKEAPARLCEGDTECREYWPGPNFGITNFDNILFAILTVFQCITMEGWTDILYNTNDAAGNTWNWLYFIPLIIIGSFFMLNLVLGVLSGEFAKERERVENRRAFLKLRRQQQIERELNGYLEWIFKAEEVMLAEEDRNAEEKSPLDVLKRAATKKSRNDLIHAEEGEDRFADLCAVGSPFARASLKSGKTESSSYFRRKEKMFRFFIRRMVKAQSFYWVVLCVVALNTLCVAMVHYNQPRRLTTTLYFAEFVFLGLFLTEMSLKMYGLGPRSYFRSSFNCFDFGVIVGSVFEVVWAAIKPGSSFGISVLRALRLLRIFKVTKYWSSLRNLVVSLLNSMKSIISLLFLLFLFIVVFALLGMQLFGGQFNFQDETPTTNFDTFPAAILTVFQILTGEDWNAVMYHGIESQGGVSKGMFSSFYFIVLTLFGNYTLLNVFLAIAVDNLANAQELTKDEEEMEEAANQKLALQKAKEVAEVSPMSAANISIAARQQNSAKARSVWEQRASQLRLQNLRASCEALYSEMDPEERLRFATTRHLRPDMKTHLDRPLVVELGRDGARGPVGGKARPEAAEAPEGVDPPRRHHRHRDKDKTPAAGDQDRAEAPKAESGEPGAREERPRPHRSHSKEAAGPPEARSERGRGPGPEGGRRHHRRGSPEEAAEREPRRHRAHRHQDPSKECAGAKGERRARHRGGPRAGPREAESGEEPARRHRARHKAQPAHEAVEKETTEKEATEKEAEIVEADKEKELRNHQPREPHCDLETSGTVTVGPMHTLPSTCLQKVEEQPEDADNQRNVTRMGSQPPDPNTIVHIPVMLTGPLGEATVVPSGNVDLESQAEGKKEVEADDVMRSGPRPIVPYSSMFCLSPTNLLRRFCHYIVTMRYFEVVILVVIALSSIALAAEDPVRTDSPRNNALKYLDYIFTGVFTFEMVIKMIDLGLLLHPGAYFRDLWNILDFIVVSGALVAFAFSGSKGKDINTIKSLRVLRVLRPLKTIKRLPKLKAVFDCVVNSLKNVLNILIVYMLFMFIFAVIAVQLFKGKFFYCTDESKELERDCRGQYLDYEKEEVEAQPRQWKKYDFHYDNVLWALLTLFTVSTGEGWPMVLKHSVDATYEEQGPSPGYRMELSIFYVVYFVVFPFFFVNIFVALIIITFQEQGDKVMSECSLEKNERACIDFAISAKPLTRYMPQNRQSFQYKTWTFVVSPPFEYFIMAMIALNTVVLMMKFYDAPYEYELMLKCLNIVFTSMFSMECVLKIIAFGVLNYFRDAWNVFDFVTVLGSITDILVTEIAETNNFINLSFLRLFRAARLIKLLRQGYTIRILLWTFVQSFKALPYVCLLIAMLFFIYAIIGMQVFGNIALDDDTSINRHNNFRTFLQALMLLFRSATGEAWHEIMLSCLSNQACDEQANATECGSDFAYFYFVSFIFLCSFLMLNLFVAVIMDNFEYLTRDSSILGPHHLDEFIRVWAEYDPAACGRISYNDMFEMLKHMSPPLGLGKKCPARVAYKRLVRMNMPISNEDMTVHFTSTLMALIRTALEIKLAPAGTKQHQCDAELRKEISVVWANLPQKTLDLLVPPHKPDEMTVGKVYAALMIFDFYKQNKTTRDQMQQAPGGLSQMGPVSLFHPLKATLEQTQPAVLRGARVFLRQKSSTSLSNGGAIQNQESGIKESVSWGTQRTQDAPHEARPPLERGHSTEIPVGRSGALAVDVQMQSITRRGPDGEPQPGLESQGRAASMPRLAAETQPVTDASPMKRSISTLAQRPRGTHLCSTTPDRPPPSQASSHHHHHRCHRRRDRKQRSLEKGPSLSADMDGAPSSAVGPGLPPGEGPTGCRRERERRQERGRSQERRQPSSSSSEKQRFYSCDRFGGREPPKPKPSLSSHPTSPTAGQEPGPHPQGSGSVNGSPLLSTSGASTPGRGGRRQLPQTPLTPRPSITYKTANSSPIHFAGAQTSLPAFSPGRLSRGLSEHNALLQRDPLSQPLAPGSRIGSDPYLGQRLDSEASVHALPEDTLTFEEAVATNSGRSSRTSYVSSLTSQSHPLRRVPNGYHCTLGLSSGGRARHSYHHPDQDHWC

Row | Structure (SMILES) | IC50 [1] | IC50 [2] | Activity (Rattus norvegicus)
1 | CC[C@H](C)[C@@H]1NC(=O)[C@H](CCCNC(=N)N)NC(=O)[C@H](CCCNC(=N)N)NC(=O)[C@@H]2CSSC[C@H](NC(=O)[C@H](N)[C@H](C)O)C(=O)N[C@@H](CCCNC(=N)N)C(=O)N[C@@H](CO)C(=O)N[C@@H](CO)C(=O)NCC(=O)N[C@@H](CCCNC(=N)N)C(=O)N[C@@H](Cc3ccc(O)cc3)C(=O)N[C@H](CSSC[C@H](C(=O)N[C@H](C(N)=O)C(C)C)NC(=O)[C@H](C)NC(=O)[C@H](CC(=O)O)NC(=O)[C@H]([C@@H](C)O)NC1=O)C(=O)N[C@@H](CCCNC(=N)N)C(=O)N[C@@H](CO)C(=O)N1CCC[C@H]1C(=O)N[C@@H](Cc1ccc(O)cc1)C(=O)N[C@@H](CC(=O)O)C(=O)N[C@@H](CCCNC(=N)N)C(=O)N[C@@H](CCCNC(=N)N)C(=O)N[C@@H](CCCNC(=N)N)C(=O)N[C@@H](CCCNC(=N)N)C(=O)N[C@@H](Cc1ccc(O)cc1)C(=O)N2 | 0.116 µM | 0.003 µM | –
2 | C[C@@H](O)[C@@H]1NC(=O)[C@@H]2CSSC[C@@H](C(=O)N[C@@H](Cc3ccc(O)cc3)C(=O)O)NC(=O)[C@H](CCC(N)=O)NC(=O)[C@H](Cc3ccc(O)c(I)c3)NC(=O)[C@H](CCCNC(=N)N)NC(=O)[C@H](CSSC[C@H](NC(=O)CN)C(=O)N2)NC(=O)[C@H](CCCNC(N)=O)NC(=O)[C@@H]2CCCN2C(=O)[C@H](CC(=O)O)NC1=O | – | – | Active
